± gives the expanded uncertainty stated by the source.
Test: mn = molality of the nth substance listed, in mol/kg
Settings: 350 kPa, Liquid, Extra sensitive DSC

C1COCCOCCOCCOCCOCCO1 [1,4,7,10,13,16-hexaoxacyclooctadecane] + O
apparent molar heat capacity (338.15 K, m1 = 0.01001): 925.2 ± 8.3 J/K/mol | apparent molar heat capacity (338.15 K, m1 = 0.02001): 920.5 ± 4.1 J/K/mol | apparent molar heat capacity (338.15 K, m1 = 0.03002): 920.9 ± 2.7 J/K/mol | apparent molar heat capacity (338.15 K, m1 = 0.0401): 927.9 ± 2.1 J/K/mol | apparent molar heat capacity (338.15 K, m1 = 0.04995): 928.1 ± 1.7 J/K/mol | apparent molar heat capacity (338.15 K, m1 = 0.06015): 927.8 ± 1.5 J/K/mol | apparent molar heat capacity (338.15 K, m1 = 0.08002): 927.2 ± 1.1 J/K/mol | apparent molar heat capacity (338.15 K, m1 = 0.1224): 926.44 ± 0.7 J/K/mol | apparent molar heat capacity (338.15 K, m1 = 0.1472): 926.89 ± 0.67 J/K/mol | apparent molar heat capacity (338.15 K, m1 = 0.1935): 925.61 ± 0.58 J/K/mol | apparent molar heat capacity (338.15 K, m1 = 0.2925): 924.48 ± 0.4 J/K/mol | apparent molar heat capacity (343.15 K, m1 = 0.01001): 932.5 ± 8.4 J/K/mol | apparent molar heat capacity (343.15 K, m1 = 0.02001): 929.1 ± 4.1 J/K/mol | apparent molar heat capacity (343.15 K, m1 = 0.03002): 929.3 ± 2.7 J/K/mol | apparent molar heat capacity (343.15 K, m1 = 0.0401): 936.1 ± 2.1 J/K/mol | apparent molar heat capacity (343.15 K, m1 = 0.04995): 936.3 ± 1.7 J/K/mol | apparent molar heat capacity (343.15 K, m1 = 0.06015): 936.3 ± 1.5 J/K/mol | apparent molar heat capacity (343.15 K, m1 = 0.08002): 935.5 ± 1.1 J/K/mol | apparent molar heat capacity (343.15 K, m1 = 0.1224): 934.88 ± 0.7 J/K/mol | apparent molar heat capacity (343.15 K, m1 = 0.1472): 935.27 ± 0.7 J/K/mol | apparent molar heat capacity (343.15 K, m1 = 0.1935): 934.03 ± 0.58 J/K/mol | apparent molar heat capacity (343.15 K, m1 = 0.2925): 932.93 ± 0.39 J/K/mol | apparent molar heat capacity (348.15 K, m1 = 0.01001): 939.9 ± 8.4 J/K/mol | apparent molar heat capacity (348.15 K, m1 = 0.02001): 936.3 ± 4.1 J/K/mol | apparent molar heat capacity (348.15 K, m1 = 0.03002): 936.4 ± 2.7 J/K/mol | apparent molar heat capacity (348.15 K, m1 = 0.0401): 942.7 ± 2.1 J/K/mol | apparent molar heat capacity (348.15 K, m1 = 0.04995): 943.1 ± 1.7 J/K/mol | apparent molar heat capacity (348.15 K, m1 = 0.06015): 943.5 ± 1.4 J/K/mol | apparent molar heat capacity (348.15 K, m1 = 0.08002): 942.4 ± 1 J/K/mol | apparent molar heat capacity (348.15 K, m1 = 0.1224): 941.88 ± 0.69 J/K/mol | apparent molar heat capacity (348.15 K, m1 = 0.1472): 942.17 ± 0.71 J/K/mol | apparent molar heat capacity (348.15 K, m1 = 0.1935): 941.03 ± 0.58 J/K/mol | apparent molar heat capacity (348.15 K, m1 = 0.2925): 939.88 ± 0.4 J/K/mol | apparent molar heat capacity (353.15 K, m1 = 0.01001): 946.2 ± 8.2 J/K/mol | apparent molar heat capacity (353.15 K, m1 = 0.02001): 942 ± 4.1 J/K/mol | apparent molar heat capacity (353.15 K, m1 = 0.03002): 942.4 ± 2.8 J/K/mol | apparent molar heat capacity (353.15 K, m1 = 0.0401): 949 ± 2.1 J/K/mol | apparent molar heat capacity (353.15 K, m1 = 0.04995): 949.2 ± 1.7 J/K/mol | apparent molar heat capacity (353.15 K, m1 = 0.06015): 949 ± 1.4 J/K/mol | apparent molar heat capacity (353.15 K, m1 = 0.08002): 948.1 ± 1 J/K/mol | apparent molar heat capacity (353.15 K, m1 = 0.1224): 947.6 ± 0.69 J/K/mol | apparent molar heat capacity (353.15 K, m1 = 0.1472): 947.8 ± 0.7 J/K/mol | apparent molar heat capacity (353.15 K, m1 = 0.1935): 946.84 ± 0.58 J/K/mol | apparent molar heat capacity (353.15 K, m1 = 0.2925): 945.53 ± 0.39 J/K/mol | apparent molar heat capacity (358.15 K, m1 = 0.01001): 951.4 ± 8.2 J/K/mol | apparent molar heat capacity (358.15 K, m1 = 0.02001): 946.9 ± 4.1 J/K/mol | apparent molar heat capacity (358.15 K, m1 = 0.03002): 947.4 ± 2.8 J/K/mol | apparent molar heat capacity (358.15 K, m1 = 0.0401): 954.1 ± 2.1 J/K/mol | apparent molar heat capacity (358.15 K, m1 = 0.04995): 954 ± 1.7 J/K/mol | apparent molar heat capacity (358.15 K, m1 = 0.06015): 953.6 ± 1.4 J/K/mol | apparent molar heat capacity (358.15 K, m1 = 0.08002): 952.9 ± 1 J/K/mol | apparent molar heat capacity (358.15 K, m1 = 0.1224): 952.29 ± 0.69 J/K/mol | apparent molar heat capacity (358.15 K, m1 = 0.1472): 952.42 ± 0.69 J/K/mol | apparent molar heat capacity (358.15 K, m1 = 0.1935): 951.41 ± 0.55 J/K/mol | apparent molar heat capacity (358.15 K, m1 = 0.2925): 949.82 ± 0.37 J/K/mol | apparent molar heat capacity (363.15 K, m1 = 0.01001): 956.3 ± 8.5 J/K/mol | apparent molar heat capacity (363.15 K, m1 = 0.02001): 950.6 ± 4.1 J/K/mol | apparent molar heat capacity (363.15 K, m1 = 0.03002): 951.5 ± 2.7 J/K/mol | apparent molar heat capacity (363.15 K, m1 = 0.0401): 957.7 ± 2.1 J/K/mol | apparent molar heat capacity (363.15 K, m1 = 0.04995): 957.7 ± 1.7 J/K/mol | apparent molar heat capacity (363.15 K, m1 = 0.06015): 957.3 ± 1.4 J/K/mol | apparent molar heat capacity (363.15 K, m1 = 0.08002): 956.5 ± 1.1 J/K/mol | apparent molar heat capacity (363.15 K, m1 = 0.1224): 955.71 ± 0.72 J/K/mol | apparent molar heat capacity (363.15 K, m1 = 0.1472): 955.85 ± 0.68 J/K/mol | apparent molar heat capacity (363.15 K, m1 = 0.1935): 954.72 ± 0.51 J/K/mol | apparent molar heat capacity (363.15 K, m1 = 0.2925): 952.93 ± 0.35 J/K/mol | apparent molar heat capacity (368.15 K, m1 = 0.01001): 958.6 ± 8.2 J/K/mol | apparent molar heat capacity (368.15 K, m1 = 0.02001): 953.5 ± 4.1 J/K/mol | apparent molar heat capacity (368.15 K, m1 = 0.03002): 954.4 ± 2.7 J/K/mol | apparent molar heat capacity (368.15 K, m1 = 0.0401): 959.7 ± 2.1 J/K/mol | apparent molar heat capacity (368.15 K, m1 = 0.04995): 960.2 ± 1.6 J/K/mol | apparent molar heat capacity (368.15 K, m1 = 0.06015): 959.9 ± 1.4 J/K/mol | apparent molar heat capacity (368.15 K, m1 = 0.08002): 959.2 ± 1.1 J/K/mol | apparent molar heat capacity (368.15 K, m1 = 0.1224): 958.26 ± 0.7 J/K/mol | apparent molar heat capacity (368.15 K, m1 = 0.1472): 958.12 ± 0.65 J/K/mol | apparent molar heat capacity (368.15 K, m1 = 0.1935): 957 ± 0.5 J/K/mol | apparent molar heat capacity (368.15 K, m1 = 0.2925): 954.88 ± 0.34 J/K/mol | apparent molar heat capacity (373.15 K, m1 = 0.01001): 959.1 ± 8.1 J/K/mol | apparent molar heat capacity (373.15 K, m1 = 0.02001): 955.6 ± 4.1 J/K/mol | apparent molar heat capacity (373.15 K, m1 = 0.03002): 955.9 ± 2.7 J/K/mol | apparent molar heat capacity (373.15 K, m1 = 0.0401): 960.6 ± 2 J/K/mol | apparent molar heat capacity (373.15 K, m1 = 0.04995): 961.7 ± 1.6 J/K/mol | apparent molar heat capacity (373.15 K, m1 = 0.06015): 961.5 ± 1.4 J/K/mol | apparent molar heat capacity (373.15 K, m1 = 0.08002): 960.8 ± 1 J/K/mol | apparent molar heat capacity (373.15 K, m1 = 0.1224): 959.82 ± 0.7 J/K/mol | apparent molar heat capacity (373.15 K, m1 = 0.1472): 959.52 ± 0.66 J/K/mol | apparent molar heat capacity (373.15 K, m1 = 0.1935): 958.21 ± 0.49 J/K/mol | apparent molar heat capacity (373.15 K, m1 = 0.2925): 955.86 ± 0.33 J/K/mol | apparent molar heat capacity (378.15 K, m1 = 0.01001): 960.1 ± 8 J/K/mol | apparent molar heat capacity (378.15 K, m1 = 0.02001): 955.9 ± 4.1 J/K/mol | apparent molar heat capacity (378.15 K, m1 = 0.03002): 957.7 ± 2.8 J/K/mol | apparent molar heat capacity (378.15 K, m1 = 0.0401): 960.8 ± 2 J/K/mol | apparent molar heat capacity (378.15 K, m1 = 0.04995): 962.6 ± 1.6 J/K/mol | apparent molar heat capacity (378.15 K, m1 = 0.06015): 962.6 ± 1.4 J/K/mol | apparent molar heat capacity (378.15 K, m1 = 0.08002): 961.5 ± 1 J/K/mol | apparent molar heat capacity (378.15 K, m1 = 0.1224): 960.5 ± 0.69 J/K/mol | apparent molar heat capacity (378.15 K, m1 = 0.1472): 960.13 ± 0.68 J/K/mol | apparent molar heat capacity (378.15 K, m1 = 0.1935): 958.64 ± 0.5 J/K/mol | apparent molar heat capacity (378.15 K, m1 = 0.2925): 956.01 ± 0.34 J/K/mol | apparent molar heat capacity (383.15 K, m1 = 0.01001): 960.3 ± 7.9 J/K/mol | apparent molar heat capacity (383.15 K, m1 = 0.02001): 956.3 ± 4.2 J/K/mol | apparent molar heat capacity (383.15 K, m1 = 0.03002): 959.2 ± 2.8 J/K/mol | apparent molar heat capacity (383.15 K, m1 = 0.0401): 959.6 ± 2 J/K/mol | apparent molar heat capacity (383.15 K, m1 = 0.04995): 962.7 ± 1.7 J/K/mol | apparent molar heat capacity (383.15 K, m1 = 0.06015): 962.5 ± 1.4 J/K/mol | apparent molar heat capacity (383.15 K, m1 = 0.08002): 961.5 ± 1 J/K/mol | apparent molar heat capacity (383.15 K, m1 = 0.1224): 960.35 ± 0.68 J/K/mol | apparent molar heat capacity (383.15 K, m1 = 0.1472): 959.95 ± 0.66 J/K/mol | apparent molar heat capacity (383.15 K, m1 = 0.1935): 958.25 ± 0.5 J/K/mol | apparent molar heat capacity (383.15 K, m1 = 0.2925): 955.31 ± 0.34 J/K/mol | apparent molar heat capacity (388.15 K, m1 = 0.01001): 958.8 ± 8.2 J/K/mol | apparent molar heat capacity (388.15 K, m1 = 0.02001): 955.7 ± 4.2 J/K/mol | apparent molar heat capacity (388.15 K, m1 = 0.03002): 959.9 ± 2.8 J/K/mol | apparent molar heat capacity (388.15 K, m1 = 0.0401): 956.7 ± 2.1 J/K/mol | apparent molar heat capacity (388.15 K, m1 = 0.04995): 962.3 ± 1.8 J/K/mol | apparent molar heat capacity (388.15 K, m1 = 0.06015): 961.8 ± 1.5 J/K/mol | apparent molar heat capacity (388.15 K, m1 = 0.08002): 960.8 ± 1.1 J/K/mol | apparent molar heat capacity (388.15 K, m1 = 0.1224): 959.65 ± 0.7 J/K/mol | apparent molar heat capacity (388.15 K, m1 = 0.1472): 959.06 ± 0.7 J/K/mol | apparent molar heat capacity (388.15 K, m1 = 0.1935): 957.22 ± 0.52 J/K/mol | apparent molar heat capacity (388.15 K, m1 = 0.2925): 954.17 ± 0.35 J/K/mol | apparent molar heat capacity (393.15 K, m1 = 0.01001): 958.8 ± 9.7 J/K/mol | apparent molar heat capacity (393.15 K, m1 = 0.02001): 954.7 ± 4.2 J/K/mol | apparent molar heat capacity (393.15 K, m1 = 0.03002): 967.1 ± 2.8 J/K/mol | apparent molar heat capacity (393.15 K, m1 = 0.0401): 951.9 ± 2.4 J/K/mol | apparent molar heat capacity (393.15 K, m1 = 0.04995): 961.7 ± 2.2 J/K/mol | apparent molar heat capacity (393.15 K, m1 = 0.06015): 961.2 ± 1.8 J/K/mol | apparent molar heat capacity (393.15 K, m1 = 0.08002): 960.2 ± 1.3 J/K/mol | apparent molar heat capacity (393.15 K, m1 = 0.1224): 958.56 ± 0.75 J/K/mol | apparent molar heat capacity (393.15 K, m1 = 0.1472): 957.61 ± 0.83 J/K/mol | apparent molar heat capacity (393.15 K, m1 = 0.1935): 955.72 ± 0.55 J/K/mol | apparent molar heat capacity (393.15 K, m1 = 0.2925): 952.32 ± 0.38 J/K/mol
